Results published in PubChem BioAssay (NCI).
Several values for one entry are separate records, joined by “and”; a condition that tells them apart may be missing. Equal entries are not always repeated.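 Values below derive from 48-hour exposures of cells grown in 96-well plates, with endpoints linearly interpolated between the two concentrations bracketing the appropriate inhibition level. GI50 = concentration required for 50% inhibition of growth. At the TGI there is no net growth.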

Key:
Assay in all cases: DTP human tumour cell line panel, 48 h
786-0 renal = system: 786-0 renal
A498 renal = system: A498 renal
M14 melanoma = system: M14 melanoma
NCI-H460 lung = system: NCI-H460 lung
SK-MEL-2 melanoma = system: SK-MEL-2 melanoma
SK-MEL-5 melanoma = system: SK-MEL-5 melanoma
SNB-75 CNS = system: SNB-75 CNS
UO-31 renal = system: UO-31 renal
MALME-3M melanoma = system: MALME-3M melanoma
MDA-MB-435 = system: MDA-MB-435

SMILES | TGI (786-0 renal) | TGI (A498 renal) [µM] | TGI (M14 melanoma) | TGI (NCI-H460 lung) | TGI (SK-MEL-2 melanoma) | TGI (SK-MEL-5 melanoma) | TGI (SNB-75 CNS) | TGI (UO-31 renal) [µM] | TGI (MALME-3M melanoma) | GI50 (786-0 renal) | GI50 (M14 melanoma) [nM] | GI50 (MALME-3M melanoma) [µM] | GI50 (MDA-MB-435) [µM] | TGI (MDA-MB-435) [µM] | GI50 (NCI-H460 lung) [µM] | GI50 (SNB-75 CNS) [µM] | GI50 (UO-31 renal) [µM] | GI50 (A498 renal) [µM] | GI50 (SK-MEL-2 melanoma) [nM] | GI50 (SK-MEL-5 melanoma) [µM]
O=C(Nc1ccccc1)O/N=C1/CCCC/C1=C\c1ccccc1 | 32.5 µM | 53.6 | 32.8 µM | 28.3 µM | 29.2 µM | 25.6 µM | 28.6 µM | 27 |  |  |  |  |  |  |  |  |  |  |  | 
Nc1ccc(CCN2CCN(c3cccc(C(F)(F)F)c3)CC2)cc1 | > 100 µM | > 100 | > 100 µM | > 100 µM |  | > 100 µM | > 100 µM | > 100 | > 100 µM |  |  |  |  |  |  |  |  |  |  | 
N#Cc1c2ccccc2c2nnc3cc(C(F)(F)F)ccc3n12 | > 100 µM |  | > 100 µM | > 100 µM |  |  | > 100 µM | > 100 | > 100 µM | > 100 µM | 29700 | > 100 | 31.4 | > 100 | 37.1 | > 100 | 70.3 |  |  | 
CCOC(=O)c1[nH]c2cccc3c2c1CC(Br)C3=O (stereo not given) | 17.3 µM | 32.3 | 27.2 µM | 47.8 µM |  | 33.1 µM |  | 19.2 | 28.2 µM |  |  |  |  | 25.2 |  |  |  |  |  | 
CN(C)CCCNC(=O)c1cc(NC(=O)c2cc(NC(=O)CCCN3c4ccccc4C=Cc4ccccc43)cn2C)cn1C | > 100 µM | 53.3 | > 100 µM | > 100 µM |  |  | 62.9 µM | 59.7 |  | 11.4 µM | 2970 |  |  |  | 5.19 | 13.6 | 23.5 | 22.4 |  | 
O=C(c1ccccc1)c1ccc2cccc(O)c2n1 | 51.6 µM |  | 28 µM |  | > 100 µM | 75.8 µM | > 100 µM | > 100 | > 100 µM |  |  |  |  |  |  |  |  |  |  | 
COC(=O)C1Cc2c(n(C)c3ccccc23)C(c2ccccc2)N1 (stereo not given) | > 100 µM | > 100 | > 100 µM | > 100 µM | > 100 µM | 93 µM | > 100 µM | > 100 | > 100 µM |  |  |  |  |  |  |  |  |  |  | 
NC(=O)c1csc(C2O[C@@H](COP(=O)(O)OP(=O)(O)OC[C@H]3OC(n4cnc5c(N)ncnc54)[C@H](O)[C@@H]3O)[C@H](O)[C@@H]2O)n1 (stereo not given in full) | > 100 µM | > 100 | > 100 µM | > 100 µM | > 100 µM | > 100 µM | > 100 µM | > 100 | > 100 µM |  |  |  |  |  |  |  |  |  |  | 
CC(C)(C)C(=O)Nc1ccccc1Br | > 100 µM |  | > 100 µM | > 100 µM | > 100 µM | > 100 µM | > 100 µM | > 100 | > 100 µM |  |  |  |  |  |  |  |  |  |  | 
COC1CCC2C(=O)CCCC2O1 (stereo not given) | > 100 µM | > 100 | > 100 µM | > 100 µM | > 100 µM | > 100 µM | > 100 µM | > 100 | > 100 µM |  |  |  |  |  |  |  |  |  |  | 
O=C(Nc1cccc(C2=NCCN2)c1)c1ccc(OCCCOc2ccc(C(=O)Nc3cccc(C4=NCCN4)c3)cc2)cc1 | > 100 µM | 8.37 | > 100 µM |  |  |  |  | > 100 |  | 3.69 µM | 2880 |  |  |  |  |  | 13.5 | 2.3 |  | 
COC(=O)C/C(C)=C/[C@@H](O)[C@H]1O[C@@H]2CC/C(Cl)=C/C/C=C(/C)[C@H](OC(C)=O)CC(=O)O[C@@H]1C2 | 2.53 µM |  |  | 13.8 µM | 9.62 µM | 3.42 µM | 6.14 µM | > 25 |  | 0.708 µM |  |  |  |  | 0.367 | 1.16 | 1.85 |  | 581 | 0.875
CCCCCCC(O)C/C=C/CCCCCC/C(C(=O)OC)=C(/O)C(=O)OCC (stereo not given) | > 100 µM | > 100 | > 100 µM | > 100 µM | > 100 µM | > 100 µM | > 100 µM | > 100 | > 100 µM |  |  |  |  |  |  |  |  |  |  | 
CN(C)CCN1N=Nc2cccc3cccc1c23 | > 100 µM | > 100 | > 100 µM | > 100 µM | > 100 µM | > 100 µM | > 100 µM | > 100 | > 100 µM |  |  |  |  |  |  |  |  |  |  | 
Cc1cc(S(=O)(=O)Nc2nnc(-c3ccco3)c(-c3ccco3)n2)c(SCc2ccccc2)cc1Cl | > 100 µM |  | 55.5 µM | 83.5 µM |  | 32.5 µM | 56.2 µM | 50.4 | 43.9 µM | 38.8 µM | 25800 | 19.8 | 25.4 | 49.6 | 31.6 | 32.1 | 21.7 |  |  | 17.5
COc1ccc(/C=C\c2cc(OC)c(OC)c(OC)c2)cc1NC(=O)[C@@H](N)CO | > 40.3 µM | < 0.0158 | > 100 µM | > 100 µM | > 100 µM | 0.0364 µM | > 66.7 µM | > 69.7 |  | 0.0188 µM | 12.3 |  |  |  | 0.0321 | < 0.0128 | 0.0486 | < 0.01 | 19.8 | < 0.0112

SMILES | TGI (786-0 renal) | TGI (A498 renal) [µM] | TGI (M14 melanoma) | TGI (NCI-H460 lung) | TGI (SK-MEL-2 melanoma) | TGI (SK-MEL-5 melanoma) | TGI (SNB-75 CNS) | TGI (UO-31 renal) [µM] | TGI (MALME-3M melanoma) | GI50 (786-0 renal) | GI50 (M14 melanoma) [nM] | GI50 (MALME-3M melanoma) [µM] | GI50 (MDA-MB-435) [µM] | TGI (MDA-MB-435) [µM] | GI50 (NCI-H460 lung) [µM] | GI50 (SNB-75 CNS) [µM] | GI50 (UO-31 renal) [µM] | GI50 (A498 renal) [µM] | GI50 (SK-MEL-2 melanoma) [nM] | GI50 (SK-MEL-5 melanoma) [µM]
O=[N+]([O-])c1ccc2c(c1)OCCOCCOc1ccc([N+](=O)[O-])cc1OCCOCCO2 | > 100 µM | > 100 | > 100 µM | > 100 µM | > 100 µM | > 100 µM | > 100 µM | > 100 | > 100 µM |  |  |  |  |  |  |  |  |  |  | 
Cc1cc(N(CCC#N)CCC#N)ccc1N=Nc1ccccc1[N+](=O)[O-] | > 100 µM | > 100 | > 100 µM |  | > 100 µM | > 100 µM | > 100 µM | > 100 | > 100 µM |  |  |  |  |  |  |  |  |  |  | 
CC(=O)CC(=O)CCCC(=O)Nc1ccc(Cl)cc1Cl | > 100 µM |  | > 100 µM | > 100 µM | > 100 µM |  | > 100 µM | > 100 | > 100 µM |  |  |  |  |  |  |  |  |  |  | 
Cc1ccc(C)c(NC(=O)CC2C(=O)Nc3ccccc3S2(=O)=O)c1 (stereo not given) | 56.5 µM | > 100 | > 100 µM | > 100 µM | > 100 µM | > 100 µM | 45.7 µM | > 100 | 96.2 µM |  |  |  |  |  |  |  |  |  |  | 
O=C1C(c2ccc(Cl)cc2)=[N+]([O-])c2ccccc21 | 30.7 µM | 86.9 | 27.7 µM | 37.6 µM | 77.3 µM | 26.6 µM | 42.2 µM | > 100 | 31.8 µM |  |  |  |  |  |  |  |  |  |  | 
O=[N+]([O-])c1ccc(OCCNc2cccc3ccccc23)cc1 | > 100 µM | > 100 | > 100 µM | > 100 µM | > 100 µM | > 100 µM | > 100 µM | > 100 | > 100 µM |  |  |  |  |  |  |  |  |  |  | 
C=CC[P@@]1(=O)O[C@H](c2ccccc2)C(C)N1C(C)C (stereo not given in full) | > 100 µM | > 100 | > 100 µM | > 100 µM |  | > 100 µM | > 100 µM | > 100 | > 100 µM |  |  |  |  |  |  |  |  |  |  | 
COC(=O)[C@H](C)[C@H]1CC[C@@](C)([C@H]2CC3C(C)(C)[C@H]4CCC(C)=C[C@H]4C[C@@]3(C)O2)OO1 (stereo not given in full) | 20.2 µM | 24.1 | 25.8 µM | 4.62 µM | 31.4 µM | 17.8 µM | 18.1 µM | 19.2 | 28.3 µM |  |  |  |  |  |  |  |  |  |  | 
CC(C)SC1SCC2C(=O)N(C)C3(CC3C)C(=O)OCC(NC(=O)c3nc4ccccc4cc3O)C(=O)NC(C)C(=O)N(C)C1C(=O)N(C)C1(CC1C)C(=O)OCC(NC(=O)c1nc3ccccc3cc1O)C(=O)NC(C)C(=O)N2C (stereo not given) | < 0.0001 µM | < 0.0001 | < 0.0001 µM |  |  | < 0.0001 µM |  | < 0.0001 |  |  |  |  |  | < 0.0001 |  |  |  |  |  | 
CC1=C2C(=CC(C)(CO)C2O)C(=O)C(C)(O)C12CC2 (stereo not given) | 0.014 µM | 0.0204 | 0.0104 µM | 0.0046 µM | 0.00422 µM | 0.0036 µM | 0.0165 µM | 0.039 | 0.0105 µM |  |  |  |  |  |  | 0.00576 | 0.0164 |  |  | 
CC1(c2ccccc2)CC12C(=O)NC(=O)NC2=O (stereo not given) | > 100 µM |  | > 100 µM |  | > 100 µM | > 100 µM |  | > 100 | > 100 µM |  |  |  |  |  |  |  |  |  |  | 
COc1cccc(/C=C\c2cc(OC)c(OC)c(OC)c2)c1 | 71.5 µM |  | > 100 µM | > 100 µM |  |  | 20.4 µM | 33 | 42.8 µM |  |  |  |  |  |  |  |  |  |  | 
Cc1c2cc[n+](C)cc2c(C)c2c1[nH]c1ccc(OC(C)C)cc12 | 9.1 µM and 32.5 µM | > 46.8 | 35 µM and 26.7 µM | 11.8 µM and 13.6 µM | 3.94 µM and 8.68 µM | 3.32 µM and 4.01 µM | 0.82 µM and 1.99 µM | > 100 | 3.89 µM and 5.25 µM | 0.223 µM and 1.41 µM |  |  |  |  |  |  |  |  |  | 
Cc1ccc(C2=[N+]([O-])c3ccccc3C2=O)cc1 | 69.4 µM | > 100 | 59.4 µM | > 100 µM | 97.7 µM | 27.5 µM | > 100 µM | > 87.9 | 41 µM |  |  |  |  |  |  |  |  |  |  | 
N#C[C@]12CC3(CC[C@H]1CC1(C2)OCCO1)OCCO3 | > 100 µM | > 100 | > 100 µM | > 100 µM | > 100 µM | > 100 µM | > 100 µM | > 100 | > 100 µM |  |  |  |  |  |  |  |  |  |  | 
N.N.NCCCCN.O=C([O-])CC(=O)[O-].O=C([O-])CC(=O)[O-].[Pt+4].[Pt+4] | > 100 µM | > 100 | > 100 µM | > 100 µM | > 100 µM | > 100 µM | > 100 µM | > 100 | > 100 µM | 57.3 µM | > 100000 | > 100 |  |  | 9.62 | > 100 | 59.4 | > 100 | > 100000 | > 100
